These results are taken from patent publication EP4670717A1, “PYRROLIDINE-FUSED MYRTANOL DERIVATIVES AS INHIBITORS AND/OR DEGRADERS OF IDO1 UND USE THEREOF” (Max-Planck-Gesellschaft zur Förderung der Wissenschaften …, priority 2024, dated 2025).

Entries after “also recorded” stand apart in the source; their conditions may differ. Where only a bound is given, the exact number is not on record here.

As usually defined, the IC50 is the concentration that gives 50% inhibition. Broadly, the Dmax is the greatest extent of degradation seen. The low end stands for a partial loss of target, the high end for a fuller loss of target. What is called inhibition is how much of the control response was suppressed.

Test [1] concerns the target T1, recombinant human IDO1 (rhIDO1) (Homo sapiens, UniProt P14902).
T1 construct: Full-length rhIDO protein (1 µM) in 50 mM potassium phosphate buffer; GST (cleaved yes); made in house; host or cells: E. coli
Briefly: IDO1 enzymatic assay with recombinant protein, Kyn detection with p-DMAB. The settings on record: pre-incubated with compounds at 37°C for 40 min; for rhIDO1 enzymatic activity Inhibition [%] / inhibition at 59 µM: in vitro inhibition at 59 uM; for IC50: determined if inhibition at 59 µM was higher than 50%, read-out: rhIDO1 enzymatic activity IC50 ± SD. The class given is biochemical. The text has this: Reduction of the kynurenine level in the cell-based model employed for initial SAR exploration can be due to inhibition of enzymatic activity, degradation of IDO1, or both (Table B-2). In order to differentiate between these different activities, we explored the modes of action of selected compounds in an in vitro assay employing recombinant human IDO1 (rhIDO1) monitoring enzymatic activity only, and we characterized the degradation efficiency by means of Western blotting, determining maximum degradation levels at 0.1µM (Dmax) and half maximum degradation concentration (DC50) (Table B-2). Table B-2 in vitro inhibition and degradation of IDO1 by selected compounds. […] Data are mean values ± SD (n = 4, except for compounds 1, 11, and 19 (n=2)). […] Data are mean values of n biological replicates. Dmax corresponds to maximum levels of IDO1 degradation at 0.1 µM.
Full-length rhIDO protein (1 µM) in 50 mM potassium phosphate buffer (50 mM KH2PO4 and 50 mM K2HPO4, pH 6.5) was incubated with the respective compounds for 40 min at 37 °C prior to the addition of 10 mM ascorbic acid, 10 µM methylene blue, 2 mM Trp and 100 µg/mL catalase (Sigma-Aldrich, C100). Samples were incubated for 60 min followed by the addition of trichloroacetic acid to a final concentration of 7 % and further incubation for 30 min at 37 °C. Kyn levels were detected by the addition of an equal volume of 2 % (w/v) p-DMAB in acetic acid and absorbance was measured at 492 nm and 650 nm as a background control. Values are presented relative to the DMSO control. Dose-response curves and IC50 values were generated and fitted with GraphPad Prism 6.0 (GraphPad software, USA) using four-parameter variable slope non-linear regression curve fit.

The target of test [2] is T2, IDO1 (Homo sapiens, UniProt P14902).
T2 construct: BxPC3 cells were seeded in phenol red-free RPMI 1640 medium; endogenous in cells; host or cells: BxPC3 cells stimulated with IFN-γ (50 ng/mL)
Nature of the test: Kyn assay in BxPC-3 cells (Kyn levels after IFN-γ and Trp).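 As to all read-outs here: kyn levels expressed relative to DMSO-treated control cells.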 The format is cell-based. The following applies: for IC50: BxPC-3 cells incubated with IFN-γ, Trp and the compounds for 48 h, read-out: Kyn assay IC50 ± SD; for activity in the cell-based kynurenine assay: result in words.
Description: BxPC3 cells were seeded in phenol red-free RPMI 1640 medium in 1536-well or 384-well plates (Greiner #782086, Corning #3770) 24 h prior to the addition of compounds, IFN-γ (50 ng/mL, PeproTech) and L-Trp (380 µM, Sigmal-Aldrich). After 48 h of incubation, first cell viability was accessed by the addition of Hoechst-33342. Afterwards, trichloroacetic acid (TCA, Sigma-Aldrich) was added to a final concentration of 7 % and incubated for 10 min prior to a centrifugation step of 10 min at 1620 × g. Kyn levels were determined by means of the Kyn sensor^7 at a final concentration of 17.5 µM in sensor buffer (50 mM H3PO4 and 120 mM NaCl (pH=1)). Fluorescence intensity (excitation: 535 nm, emission: 595 nm) was measured using a Spectramax Paradigm reader (Molecular Devices). Data were normalized to the values for cells that were treated with DMSO.
For the manual assay, BxPC3 or SKOV3 cells were seeded in clear 96-well or 384-well plates, respectively, 24 h prior to compound treatment and IFN-γ (50 or 5 ng/mL, respectively) and L-Trp (380 µM) addition as described before.^7 48 h after treatment, TCA was added and Kyn levels were detected by means of 2 % w/v of p-DMAB (Ehrlich reagent) in acetic acid as described by Braun et al^29. The absorbance of the Ehrlich reagent was detected at 492 nm and at 650 nm as background control was measured on Spark® multimode microplate plate reader (Tecan, Austria). Kyn levels were determined by subtracting the absorbance value at 650 nm and presented relative to the DMSO control. Dose-response curves and IC50 values were generated and fitted with GraphPad Prism 6.0 (GraphPad software, USA) using four-parameter variable slope non-linear regression curve fit.
Cells were incubated with IFN-γ, Trp and the compounds for 48 h prior to detection of Kyn levels.

The target of test [3] is T2, IDO1. Nature of the test: IDO1 degradation in BxPC3 cells, IDO1 protein levels by immunoblotting.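 As to all read-outs here: IDO1 bands on Western blots detected with fluorescent dye-labelled secondary antibodies and quantified by band intensity, values are means of n biological replicates.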 The class given is cell-based. The following applies: 50 ng/ml IFN-γ 24 h, washout, compound (100 nM) 24 h, maximum IDO1 degradation at 0.1 µM; for Dmax at 0.1 µM: BXPC-3, BxPC3 cells; for Dmax [%] (n): BxPC3 cells. (In general: In western blotting, separated proteins are transferred to a membrane and probed.)
Description: To analyze IDO1 levels, IFN-γ-stimulated BxPC3 cells (50 ng/mL IFN-γ), U2OS cells (5 ng/mL IFN-γ), HEK^rhIDO1 (HEK293T cells electroporated with rhIDO1), SKOV3 and BT549 cells were treated with compounds for the indicated times (6 h to 24 h) followed by cell lysis (150 mM sodium chloride in 50 mM Tris (pH 8.0) and 1% NP-40 Alternative, protease and phosphatase inhibitors). Protein concentrations were determined (DC protein assay, Bio-Rad) followed by addition of 1 × SDS loading buffer and protein separation by a 10% SDS-PAGE. Separated protein samples were transferred to a polyvinylidene difluoride (PVDF) membrane using a wet-tank blotting system (Bio-Rad). IDO1 as well as vinculin as a loading were detected using the primary antibodies anti-IDO1 (ab211017, abcam or 14-9750-80, Thermo Fisher), anti-vinculin (V9131, Thermo Fisher) and anti-β-actin (ab8227, abcam) in 5 % milk in PBS-buffered saline with 0.05 % (v/v) Tween-20 (PBS-T). Primary antibodies were incubated at 4°C overnight and detected with IRDye-conjugated secondary antibodies (LI-COR Biosciences). IDO1 protein level in BT549 and SKOV3 cells was detected with HRP conjugated secondary antibody and SuperSignal™ West Dura Extended Duration Substrat (Thermo Fisher Scientific). Washing steps were performed with PBS-T. Protein bands were visualized by ChemiDoc™ MP (Bio-Rad) using a fluorescent readout. Band intensities were quantified using Image Lab software.
In order to differentiate between these different activities, we explored the modes of action of selected compounds in an in vitro assay employing recombinant human IDO1 (rhIDO1) monitoring enzymatic activity only, and we characterized the degradation efficiency by means of Western blotting, determining maximum degradation levels at 0.1µM (Dmax) and half maximum degradation concentration (DC50) (Table B-2). […] Data are mean values of n biological replicates. Dmax corresponds to maximum levels of IDO1 degradation at 0.1 µM.

T1 sequence (P14902 whole entry): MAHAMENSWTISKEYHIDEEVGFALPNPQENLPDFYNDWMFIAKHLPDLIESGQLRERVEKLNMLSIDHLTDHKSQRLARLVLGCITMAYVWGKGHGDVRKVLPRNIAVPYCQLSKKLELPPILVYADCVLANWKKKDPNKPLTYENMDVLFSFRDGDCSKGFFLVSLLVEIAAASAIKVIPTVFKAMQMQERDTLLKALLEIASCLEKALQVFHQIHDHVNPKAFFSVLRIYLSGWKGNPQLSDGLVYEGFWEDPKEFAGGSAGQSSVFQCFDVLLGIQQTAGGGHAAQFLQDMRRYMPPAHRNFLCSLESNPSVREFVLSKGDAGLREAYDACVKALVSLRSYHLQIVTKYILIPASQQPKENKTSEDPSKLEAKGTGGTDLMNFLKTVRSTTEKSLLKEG
T2 sequence (P14902 whole entry): as above

For the compound `Cc1ccc(NC(=O)OC[C@]23CN(S(=O)(=O)c4ccc(C(C)(C)C)cc4)C[C@H]2C[C@H]2C[C@@H]3C2(C)C)cc1` [compound 1, ((3aS,4R,6R,7aS)-2-((4-(tert-butyl)phenyl)sulfonyl)-5,5-dimethyloctahydro-3aH-4,6-methanoisoindol-3a-yl)methyl p-tolylcarbamate], in test [1], the “rhIDO1 enzymatic activity Inhibition [%]” value is “not active; also recorded: inactive”. Moreover, the IC50 at IDO1 [2] lay in the range of 0.2 to 1 µM.

Turning to `CC(C)(C)c1ccc(S(=O)(=O)N2C[C@H]3C[C@H]4C[C@H](C4(C)C)[C@@]3(COC(=O)Nc3ccc(I)cc3)C2)cc1` [compound 11, ((3aS,4R,6R,7aS)-2-((4-(tert-butyl)phenyl)sulfonyl)-5,5-dimethyloctahydro-3aH-4,6-methanoisoindol-3a-yl)methyl (4-iodophenyl)carbamate], the “rhIDO1 enzymatic activity Inhibition [%]” value in test [1] is “not active; also recorded: inactive”. Further, on IDO1 [2], the IC50 is less than 0.2 µM and the “activity in the cell-based kynurenine assay” value is given as “low nanomolar range”. Moreover, the “fold more potent in the Kyn assay than compound 1” value on IDO1 [2] (relative to compound 1) is recorded as 7 fold. The same compound came in with a Dmax at 0.1 µM on IDO1 [3] of 37%.

Regarding `C#Cc1ccc(NC(=O)OC[C@]23CN(S(=O)(=O)c4ccc(C(C)(C)C)cc4)C[C@H]2C[C@H]2C[C@@H]3C2(C)C)cc1` [compound 19], in test [1], the inhibition at 59 µM was determined as 49 ± 0.6%. Also, at IDO1 [2], the IC50 is less than 0.2 µM and the “activity in the cell-based kynurenine assay” value is “low nanomolar range”. Moreover, on IDO1 [3], the Dmax at 0.1 µM is more than 60% and the “Dmax [%] (n)” value was 62 ± 10 (5) %.

For the compound `Cc1cc(C(C)(C)C)ccc1S(=O)(=O)N1C[C@H]2C[C@H]3C[C@H](C3(C)C)[C@@]2(COC(=O)Nc2ccc(I)cc2)C1` [compound 52, ((3aS,4R,6R,7aS)-2-((4-(tert-butyl)-2-methylphenyl)sulfonyl)-5,5-dimethyloctahydro-3aH-4,6-methanoisoindol-3a-yl)methyl (4-iodophenyl)carbamate], in test [1], the inhibition at 59 µM was 48 ± 6%. Moreover, on IDO1 [2], the IC50 was less than 0.2 µM and the “activity in the cell-based kynurenine assay” value is given as “low nanomolar range”. At IDO1 [3], the Dmax at 0.1 µM is more than 60% and the “Dmax [%] (n)” value was 65 ± 10(14) %.

`CCc1cc(C(C)(C)C)ccc1S(=O)(=O)N1C[C@H]2C[C@H]3C[C@H](C3(C)C)[C@@]2(COC(=O)Nc2ccc(I)cc2)C1` [compound 53, ((3aS,4R,6R,7aS)-2-((4-(tert-butyl)-2-ethylphenyl)sulfonyl)-5,5-dimethyloctahydro-3aH-4,6-methanoisoindol-3a-yl)methyl (4-iodophenyl)carbamate]: in test [1], the inhibition at 59 µM was 37 ± 9%. The IC50 on IDO1 [2] is less than 0.2 µM. Also, on IDO1 [3], the Dmax at 0.1 µM was in the range of 55 to 59% and the “Dmax [%] (n)” value is recorded as 56 ± 4 (3) %.

As to `CC(C)(C)c1ccc(S(=O)(=O)N2C[C@H]3C[C@H]4C[C@H](C4(C)C)[C@@]3(COC(=O)Nc3ccc(I)cc3)C2)c(C2CC2)c1` [compound 54, ((3aS,4R,6R,7aS)-2-((4-(tert-butyl)-2-cyclopropylphenyl)sulfonyl)-5,5-dimethyl-octahydro-3aH-4,6-methanoisoindol-3a-yl)methyl (4-iodophenyl)carbamate], the inhibition at 59 µM in test [1] was determined as 35 ± 2%. Moreover, the IC50 at IDO1 [2] was less than 0.2 µM. Moreover, at IDO1 [3], the Dmax at 0.1 µM lay within 55 to 59% and the “Dmax [%] (n)” value was 55 ± 4 (3) %.

Turning to `CC(C)(C)c1ccc(S(=O)(=O)N2C[C@H]3C[C@H]4C[C@H](C4(C)C)[C@@]3(COC(=O)Nc3ccc(I)cc3)C2)c(Br)c1` [compound 56, ((3aS,4R,6R,7aS)-2-((2-bromo-4-(tert-butyl)phenyl)sulfonyl)-5,5-dimethyloctahydro-3aH-4,6-methanoisoindol-3a-yl)methyl (4-iodophenyl)carbamate], in test [1], the inhibition at 59 µM came out at 12 ± 7%. The IC50 at IDO1 [2] was less than 0.2 µM. On IDO1 [3], the Dmax at 0.1 µM was in the range of 55 to 59% and the “Dmax [%] (n)” value is 56 ± 4 (3) %.

For `CC(C)(CC(=O)O)c1ccc(S(=O)(=O)N2C[C@H]3C[C@H]4C[C@H](C4(C)C)[C@@]3(COC(=O)Nc3ccc(I)cc3)C2)cc1` [compound 63, 3-(4-(((3aS,4R,6R,7aS)-3a-((((4-iodophenyl)carbamoyl)oxy)methyl)-5,5-dimethyloctahydro-2H-4,6-methanoisoindol-2-yl)sulfonyl)phenyl)-3-methylbutanoic acid], in test [1], the inhibition at 59 µM is 67 ± 6% and the IC50 was 1.9 ± 0.5 µM. Besides, the IC50 at IDO1 [2] is less than 0.2 µM. Further, at IDO1 [3], the Dmax at 0.1 µM was 36 to 46% and the “Dmax [%] (n)” value is listed as 36 ± 2 (3) %.

For `CC(C)(C(=O)O)c1ccc(S(=O)(=O)N2C[C@H]3C[C@H]4C[C@H](C4(C)C)[C@@]3(COC(=O)Nc3ccc(I)cc3)C2)cc1` [compound 65, 2-(4-(((3aS,4R,6R,7aS)-3a-((((4-iodophenyl)carbamoyl)oxy)methyl)-5,5-dimethyloctahydro-2H-4,6-methanoisoindol-2-yl)sulfonyl)phenyl)-2-methylpropanoic acid], in test [1], the inhibition at 59 µM was determined as 72 ± 4% and the IC50 was found to be 0.82 ± 0.14 µM. Besides, on IDO1 [2], the IC50 is less than 0.2 µM and the “activity in the cell-based kynurenine assay” value was “low nanomolar range”. Moreover, on IDO1 [3], the Dmax at 0.1 µM was in the range of 36 to 46% and the “Dmax [%] (n)” value is given as 46 ± 21 (5) %.

Take `COC(=O)C(C)(C)c1ccc(S(=O)(=O)N2C[C@H]3C[C@H]4C[C@H](C4(C)C)[C@@]3(COC(=O)Nc3ccc(I)cc3)C2)c(Cl)c1` [compound 68, Methyl 2-(3-chloro-4-(((3aS,4R,6R,7aS)-3a-((((4-iodophenyl)carbamoyl)oxy)methyl)-5,5-dimethyloctahydro-2H-4,6-methanoisoindol-2-yl)sulfonyl)phenyl)-2-methylpropanoate]: the “rhIDO1 enzymatic activity Inhibition [%]” value in test [1] was “inactive”. In addition, the IC50 on IDO1 [2] is less than 0.2 µM.

Consider `CC(C)(C(=O)O)c1ccc(S(=O)(=O)N2C[C@H]3C[C@H]4C[C@H](C4(C)C)[C@@]3(COC(=O)Nc3ccc(I)cc3)C2)c(Cl)c1` [compound 69, 2-(3-chloro-4-(((3aS,4R,6R,7aS)-3a-((((4-iodophenyl)carbamoyl)oxy)methyl)-5,5-dimethyloctahydro-2H-4,6-methanoisoindol-2-yl)sulfonyl)phenyl)-2-methylpropanoic acid], for which, in test [1], the inhibition at 59 µM was found to be 55 ± 2% and the IC50 is 0.27 ± 0.02 µM. Moreover, the IC50 on IDO1 [2] was less than 0.2 µM. The Dmax at 0.1 µM on IDO1 [3] is 20 ± 12%.

Consider `Cc1cc(C(C)(C)C(=O)O)ccc1S(=O)(=O)N1C[C@H]2C[C@H]3C[C@H](C3(C)C)[C@@]2(COC(=O)Nc2ccc(I)cc2)C1` [compound 70, 2-(4-(((3aS,4R,6R,7aS)-3a-((((4-iodophenyl)carbamoyl)oxy)methyl)-5,5-dimethyloctahydro-2H-4,6-methanoisoindol-2-yl)sulfonyl)-3-methylphenyl)-2-methylpropanoic acid], for which, in test [1], the inhibition at 59 µM is 62 ± 1% and the IC50 is 0.11 ± 0.02 µM. Also, the 50% inhibitory concentration (IC50) on IDO1 [2] was less than 0.2 µM. The compound further yielded a maximal degradation (Dmax) at 0.1 µM at IDO1 [3] of 18 ± 19%.
